Laboratory results from PubChem BioAssay AID250 (DTP/NCI, 2004).
“And” between values parts separate entries of the source, which are not always exact repeats. Equal values may be shown once. Toxic doses and inconclusive results are not listed.

Tested on: BDF1 mice, L1210 leukemia sc, survival T/C
Experiment: NCI In Vivo Anticancer Drug Screen. Data for tumor model L1210 Leukemia (subcutaneous) in B6D2F1 (BDF1) mice
Conditions: higher = longer survival
Outline: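 Antitumor activity is assessed in mice with transplanted tumors by comparing the treated group (T) with the vehicle control group (C).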

For `CS(=O)(=O)Nc1ccc(Nc2c3ccccc3nc3cc([N+](=O)[O-])ccc23)cc1`, the T/C (endpoint: mean survival time, dose: 1.25 mg/kg/injection, schedule: Q01DX009 (ip), vehicle: Klucel (hydroxypropylcellulose) (HPC)) was 108 % of control, the T/C (endpoint: mean survival time, dose: 1.25 mg/kg/injection, schedule: Q01DX009 (sc), vehicle: Klucel (hydroxypropylcellulose) (HPC)) was 121 % of control and the T/C (endpoint: mean survival time, dose: 2.5 mg/kg/injection, schedule: Q01DX009 (ip), vehicle: Klucel (hydroxypropylcellulose) (HPC)) was 107 % of control. For the same compound, the T/C (endpoint: mean survival time, dose: 2.5 mg/kg/injection, schedule: Q01DX009 (sc), vehicle: Klucel (hydroxypropylcellulose) (HPC)) was 108 % of control, the T/C (endpoint: mean survival time, dose: 5.0 mg/kg/injection, schedule: Q01DX009 (ip), vehicle: Klucel (hydroxypropylcellulose) (HPC)) was 106 % of control and the T/C (endpoint: mean survival time, dose: 5.0 mg/kg/injection, schedule: Q01DX009 (sc), vehicle: Klucel (hydroxypropylcellulose) (HPC)) was 112 % of control.

With `CCOC1=C(N2CC2)C(=O)C(OCC)=C(N2CC2)C1=O` the T/C (endpoint: median survival time, dose: 3.0 mg/kg/injection, schedule: Q01DX Z (sc), vehicle: carboxymethylcellulose (CMC)) was 109 % of control, the T/C (endpoint: median survival time, dose: 14.0 mg/kg/injection, schedule: Q01DX Z (sc), vehicle: carboxymethylcellulose (CMC)) was 122 % of control and the T/C (endpoint: median survival time, dose: 23.0 mg/kg/injection, schedule: Q01DX Z (sc), vehicle: carboxymethylcellulose (CMC)) was 109 % of control.

In the case of `CC[C@]1(O)C[C@H]2CN(CCc3c([nH]c4ccccc34)[C@@](C(=O)OC)(c3cc4c(cc3OC)N(C=O)[C@H]3[C@@](O)(C(=O)OC)[C@H](OC(C)=O)[C@]5(CC)C=CCN6CC[C@]43[C@@H]65)C2)C1`, the T/C (endpoint: median survival time, dose: 0.25 mg/kg/injection, schedule: Q01DX001 (sc), vehicle: water) is reported as 100 % of control and 101 % of control, the T/C (endpoint: median survival time, dose: 0.5 mg/kg/injection, schedule: Q01DX001 (sc), vehicle: water) is reported as 104 % of control and 105 % of control and the T/C (endpoint: median survival time, dose: 0.65 mg/kg/injection, schedule: Q01DX Z (oral), vehicle: water) is reported as 116 % of control. The T/C (endpoint: median survival time, dose: 1.0 mg/kg/injection, schedule: Q01DX001 (sc), vehicle: water) was 111 % of control, the T/C (endpoint: median survival time, dose: 1.08 mg/kg/injection, schedule: Q01DX Z (oral), vehicle: water) was 122 % of control and the T/C (endpoint: median survival time, dose: 1.08 mg/kg/injection, schedule: Q02DX Z (sc), vehicle: water) was 111 % of control. The T/C (endpoint: median survival time, dose: 1.8 mg/kg/injection, schedule: Q01DX Z (oral), vehicle: water) was 100 % of control, the T/C (endpoint: median survival time, dose: 1.8 mg/kg/injection, schedule: Q02DX Z (sc), vehicle: water) was 122 % of control and the T/C (endpoint: median survival time, dose: 2.0 mg/kg/injection, schedule: Q01DX001 (sc), vehicle: water) was 120 % of control and 122 % of control. The T/C (endpoint: median survival time, dose: 3.0 mg/kg/injection, schedule: Q01DX Z (oral), vehicle: water) was 100 % of control, the T/C (endpoint: median survival time, dose: 3.0 mg/kg/injection, schedule: Q02DX Z (sc), vehicle: water) was 122 % of control and the T/C (endpoint: median survival time, dose: 5.0 mg/kg/injection, schedule: Q01DX Z (oral), vehicle: water) was 100 % of control. The T/C (endpoint: median survival time, dose: 5.0 mg/kg/injection, schedule: Q02DX Z (sc), vehicle: water) was 116 % of control and the T/C (endpoint: median survival time, dose: 8.4 mg/kg/injection, schedule: Q02DX Z (sc), vehicle: water) was 100 % of control.

`CN1c2c(nc(N)[nH]c2=O)NCC1CCNc1ccc(C(=O)NC(CCC(=O)O)C(=O)O)cc1` (configuration not stated) was tested, and the T/C (endpoint: median survival time, dose: 6.25 mg/kg/injection, schedule: Q01DX012 (ip), vehicle: other) was 100 % of control, the T/C (endpoint: median survival time, dose: 12.5 mg/kg/injection, schedule: Q01DX012 (ip), vehicle: other) was 111 % of control and the T/C (endpoint: median survival time, dose: 25.0 mg/kg/injection, schedule: Q01DX012 (ip), vehicle: other) was 122 % of control. For the same compound, the T/C (endpoint: median survival time, dose: 50.0 mg/kg/injection, schedule: Q01DX012 (ip), vehicle: other) was 122 % of control.

For `Nc1nc(N)c2nc(CN(CCO)c3ccc(C(=O)NC(CCC(=O)O)C(=O)O)cc3)cnc2n1` (configuration not stated), the T/C (endpoint: mean survival time, dose: 2.0 mg/kg/injection, schedule: Q01DX009 (ip), vehicle: sodium bicarbonate) was 160 % of control, the T/C (endpoint: mean survival time, dose: 4.0 mg/kg/injection, schedule: Q01DX009 (ip), vehicle: sodium bicarbonate) was 160 % of control and the T/C (endpoint: mean survival time, dose: 8.0 mg/kg/injection, schedule: Q01DX009 (ip), vehicle: sodium bicarbonate) was 191 % of control. The T/C (endpoint: mean survival time, dose: 8.0 mg/kg/injection, schedule: Q04DX003 (ip), vehicle: sodium bicarbonate) was 123 % of control and the T/C (endpoint: mean survival time, dose: 16.0 mg/kg/injection, schedule: Q01DX009 (ip), vehicle: sodium bicarbonate) was 154 % of control.

In the case of `O=C1C(NC(=O)C2CCCCC2)=C(N2CC2)C(=O)C(NC(=O)C2CCCCC2)=C1N1CC1`, the T/C (endpoint: median survival time, dose: 180.0 mg/kg/injection, schedule: Q01DX Z (sc), vehicle: carboxymethylcellulose (CMC)) is reported as 100 % of control, the T/C (endpoint: median survival time, dose: 300.0 mg/kg/injection, schedule: Q01DX Z (sc), vehicle: carboxymethylcellulose (CMC)) is reported as 100 % of control and the T/C (endpoint: median survival time, dose: 500.0 mg/kg/injection, schedule: Q01DX Z (sc), vehicle: carboxymethylcellulose (CMC)) is reported as 100 % of control. The T/C (endpoint: median survival time, dose: 833.0 mg/kg/injection, schedule: Q01DX Z (sc), vehicle: carboxymethylcellulose (CMC)) was 100 % of control and the T/C (endpoint: median survival time, dose: 1388.0 mg/kg/injection, schedule: Q01DX Z (sc), vehicle: carboxymethylcellulose (CMC)) was 100 % of control.

For `Nc1nc(=S)c2ncn(C3OC(COC(=O)c4ccccc4)C(OC(=O)c4ccccc4)C3OC(=O)c3ccccc3)c2[nH]1` (configuration not stated), the T/C (endpoint: median survival time, dose: 23.0 mg/kg/injection, schedule: Q01DX Z (sc), vehicle: methylcellulose (MC)) was 100 % of control, the T/C (endpoint: median survival time, dose: 39.0 mg/kg/injection, schedule: Q01DX Z (sc), vehicle: methylcellulose (MC)) was 100 % of control and the T/C (endpoint: median survival time, dose: 65.0 mg/kg/injection, schedule: Q01DX Z (sc), vehicle: methylcellulose (MC)) was 110 % of control. The T/C (endpoint: median survival time, dose: 108.0 mg/kg/injection, schedule: Q01DX Z (sc), vehicle: methylcellulose (MC)) was 100 % of control and 112 % of control, the T/C (endpoint: median survival time, dose: 180.0 mg/kg/injection, schedule: Q01DX Z (sc), vehicle: methylcellulose (MC)) was 108 % of control and the T/C (endpoint: median survival time, dose: 300.0 mg/kg/injection, schedule: Q01DX Z (sc), vehicle: methylcellulose (MC)) was 100 % of control. For the same compound, the T/C (endpoint: median survival time, dose: 500.0 mg/kg/injection, schedule: Q01DX Z (sc), vehicle: methylcellulose (MC)) was 91 % of control.

With `C[C@@H](CN1CC(=O)NC(=O)C1)N1CC(=O)NC(=O)C1` the T/C (endpoint: median survival time, dose: 8.0 mg/kg/injection, schedule: Q01DX009 (ip), vehicle: water) was 103 % of control, the T/C (endpoint: median survival time, dose: 16.0 mg/kg/injection, schedule: Q01DX009 (ip), vehicle: water) was 105 % of control and 115 % of control and the T/C (endpoint: median survival time, dose: 32.0 mg/kg/injection, schedule: Q01DX009 (ip), vehicle: water) was 114 % of control. For the same compound, the T/C (endpoint: median survival time, dose: 128.0 mg/kg/injection, schedule: Q01DX009 (ip), vehicle: water) was 150 % of control and the T/C (endpoint: median survival time, dose: 512.0 mg/kg/injection, schedule: Q01DX009 (ip), vehicle: water) was 121 % of control.

`CN(C)c1ccc(/C=C/c2ccc3ccccc3[n+]2C)cc1` was tested, and the T/C (endpoint: median survival time, dose: 0.65 mg/kg/injection, schedule: Q01DX Z (sc), vehicle: methylcellulose (MC)) was 100 % of control, the T/C (endpoint: median survival time, dose: 1.08 mg/kg/injection, schedule: Q01DX Z (sc), vehicle: methylcellulose (MC)) was 100 % of control and the T/C (endpoint: median survival time, dose: 1.8 mg/kg/injection, schedule: Q01DX Z (sc), vehicle: methylcellulose (MC)) was 104 % of control. The T/C (endpoint: median survival time, dose: 3.0 mg/kg/injection, schedule: Q01DX Z (sc), vehicle: methylcellulose (MC)) was 104 % of control and the T/C (endpoint: median survival time, dose: 5.0 mg/kg/injection, schedule: Q01DX Z (sc), vehicle: methylcellulose (MC)) was 104 % of control.

`N[C@@H](Cc1ccc(N(CCCl)CCCl)cc1)C(=O)O` was tested, and the T/C (endpoint: median survival time, dose: 0.65 mg/kg/injection, schedule: Q01DX Z (sc), vehicle: water) was 100 % of control, the T/C (endpoint: median survival time, dose: 1.09 mg/kg/injection, schedule: Q01DX Z (sc), vehicle: water) was 100 % of control and the T/C (endpoint: median survival time, dose: 1.81 mg/kg/injection, schedule: Q01DX Z (sc), vehicle: water) was 95 % of control. For the same compound, the T/C (endpoint: median survival time, dose: 3.02 mg/kg/injection, schedule: Q01DX Z (sc), vehicle: water) was 100 % of control, the T/C (endpoint: median survival time, dose: 5.04 mg/kg/injection, schedule: Q01DX Z (sc), vehicle: water) was 104 % of control and the T/C (endpoint: median survival time, dose: 8.4 mg/kg/injection, schedule: Q01DX Z (sc), vehicle: water) was 100 % of control. The T/C (endpoint: median survival time, dose: 14.0 mg/kg/injection, schedule: Q01DX Z (sc), vehicle: saline) was 114 % of control, the T/C (endpoint: median survival time, dose: 14.0 mg/kg/injection, schedule: Q01DX Z (sc), vehicle: water) was 109 % of control and the T/C (endpoint: median survival time, dose: 23.0 mg/kg/injection, schedule: Q01DX Z (sc), vehicle: saline) was 123 % of control. For the same compound, the T/C (endpoint: median survival time, dose: 23.3 mg/kg/injection, schedule: Q01DX Z (sc), vehicle: water) was 109 % of control, the T/C (endpoint: median survival time, dose: 38.9 mg/kg/injection, schedule: Q01DX Z (sc), vehicle: water) was 118 % of control and the T/C (endpoint: median survival time, dose: 39.0 mg/kg/injection, schedule: Q01DX Z (sc), vehicle: saline) was 104 % of control. For the same compound, the T/C (endpoint: median survival time, dose: 65.0 mg/kg/injection, schedule: Q01DX Z (sc), vehicle: saline) was 104 % of control.
